# Results: US9815864B2, “Substituted nucleosides, nucleotides and analogs thereof” (Alios BioPharma, Inc., priority 2013, dated 2017)
# Biological target: Norovirus polymerase (NoVpol, genotype II) (Lordsdale virus, UniProt P54634)
# Assay: biochemical
# Details: not given
# Norovirus polymerase (NoVpol, genotype II), sequence (P54634 1190-1699 limits assumed): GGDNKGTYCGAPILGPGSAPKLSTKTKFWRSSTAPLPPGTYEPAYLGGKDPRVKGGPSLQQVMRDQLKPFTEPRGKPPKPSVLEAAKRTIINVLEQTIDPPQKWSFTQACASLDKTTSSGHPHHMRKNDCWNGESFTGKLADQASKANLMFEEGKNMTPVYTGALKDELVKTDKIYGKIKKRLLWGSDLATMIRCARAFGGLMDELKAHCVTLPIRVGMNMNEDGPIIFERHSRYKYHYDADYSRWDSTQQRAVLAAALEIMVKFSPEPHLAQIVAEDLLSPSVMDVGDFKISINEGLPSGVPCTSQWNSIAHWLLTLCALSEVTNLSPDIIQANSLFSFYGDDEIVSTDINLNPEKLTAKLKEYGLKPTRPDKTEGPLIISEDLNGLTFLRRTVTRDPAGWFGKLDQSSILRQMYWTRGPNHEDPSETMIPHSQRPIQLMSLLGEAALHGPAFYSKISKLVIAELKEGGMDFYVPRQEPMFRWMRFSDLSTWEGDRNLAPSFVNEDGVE
row,SMILES,IC50
1,C[C@@]1(O)[C@H](O)[C@@](CF)(CO[P@](O)(=S)OP(=O)(O)OP(=O)(O)O)O[C@H]1n1ccc(=O)[nH]c1=O [Compound 171a],< 1000 nM
2,C[C@]1(O)C(n2ccc(=O)[nH]c2=O)O[C@H](COP(=O)(O)OP(=O)(O)OP(=O)(O)O)[C@H]1O (some centres unmarked) [Compound 260a],1000 to 10000 nM
3,CC[C@]1(COP(=O)(O)OP(=O)(O)OP(=O)(O)O)O[C@@H](n2ccc(=O)[nH]c2=O)[C@H](F)[C@@H]1O [Compound 37a],1000 to 10000 nM
4,C#C[C@@]1(O)[C@H](O)[C@@H](COP(O)(=S)OP(=O)(O)OP(=O)(O)O)O[C@H]1n1ccc(=O)[nH]c1=O (some centres unmarked) [Compound 286a],1000 to 10000 nM
5,Nc1ccn([C@@H]2O[C@](CF)(COP(=O)(O)OP(=O)(O)OP(=O)(O)O)[C@@H](O)[C@H]2F)c(=O)n1 [Compound 56c],< 1000 nM

# Same assay, conditions: 50 nM recombinant enzyme, 2.5 hours at 30° C.; read-out: IC50
row,SMILES,IC50
1,N#C[C@@]1(n2ccc(N)nc2=O)O[C@](CF)(COP(=O)(O)OP(=O)(O)OP(=O)(O)O)[C@@H](O)[C@H]1O [Compound 332a],< 1000 nM
2,Nc1ccn([C@@H]2O[C@@](COP(=O)(O)OP(=O)(O)OP(=O)(O)O)(C(F)F)[C@@H](O)[C@H]2F)c(=O)n1 [Compound 329a],1000 to 10000 nM
3,Nc1nc2c(ncn2[C@@H]2O[C@](CCl)(COP(=O)(O)OP(=O)(O)OP(=O)(O)O)[C@@H](O)[C@H]2F)c(=O)[nH]1 [Compound 116a],1000 to 10000 nM
4,[N-]=[N+]=NC[C@]1(COP(=O)(O)OP(=O)(O)OP(=O)(O)O)O[C@@H](n2ccc(=O)[nH]c2=O)[C@H](F)[C@@H]1O [Compound 114a],< 1000 nM
5,C[C@]1(F)[C@H](n2ccc(=O)[nH]c2=O)O[C@](F)(COP(=O)(O)OP(=O)(O)OP(=O)(O)O)[C@H]1O [Compound 242a],10000 to 100000 nM
6,C[C@]1(O)[C@H](n2ccc(=O)[nH]c2=O)O[C@](C)(COP(=O)(O)OP(=O)(O)OP(=O)(O)O)[C@H]1O [Compound 217a],< 1000 nM
7,O=c1[nH]cnc2c1ncn2[C@@H]1O[C@](CCl)(COP(=O)(O)OP(=O)(O)OP(=O)(O)O)[C@@H](O)[C@H]1F [Compound 98b],1000 to 10000 nM
8,C=C[C@@]1(O)[C@H](O)[C@@](CF)(COP(=O)(O)OP(=O)(O)OP(=O)(O)O)O[C@H]1n1ccc(=O)[nH]c1=O [Compound 348a],< 1000 nM
9,C[C@]1(O)[C@H](n2ccc(N)nc2=O)O[C@](F)(COP(=O)(O)OP(=O)(O)OP(=O)(O)O)[C@H]1O [Compound 238a],< 1000 nM
10,C[C@@]1(O)[C@H](O)[C@@](CF)(COP(=O)(O)OP(=O)(O)OP(=O)(O)O)O[C@H]1n1ccc2c(N)ncnc21 [Compound 351a],< 1000 nM
11,Nc1ncnc2c1ncn2[C@@H]1O[C@](CF)(COP(=O)(O)OP(=O)(O)OP(=O)(O)O)[C@@H](O)[C@H]1F [Compound 98c],< 1000 nM
12,C=C[C@]1(COP(=O)(O)OP(=O)(O)OP(=O)(O)O)O[C@@H](n2ccc(N)nc2=O)C(F)(F)[C@@H]1O [Compound 224a],1000 to 10000 nM
13,C#C[C@]1(F)[C@H](n2cnc3c(=O)[nH]c(N)nc32)O[C@](F)(COP(=O)(O)OP(=O)(O)OP(=O)(O)O)[C@H]1O [Compound 237a],< 1000 nM
14,C#C[C@@]1(O)[C@H](O)[C@@H](COP(=O)(O)OP(=O)(O)OP(=O)(O)O)O[C@H]1n1ccc2c(N)ncnc21 [Compound 292a],< 1000 nM
15,[N-]=[N+]=N[C@]1(COP(=O)(O)OP(=O)(O)OP(=O)(O)O)O[C@@H](n2cnc3c(=O)[nH]c(N)nc32)[C@H](F)[C@@H]1O [Compound 269a],< 1000 nM
16,C[C@@]1(Cl)[C@H](O)[C@@](CF)(COP(=O)(O)OP(=O)(O)OP(=O)(O)O)O[C@H]1n1ccc(=O)[nH]c1=O [Compound 306a],10000 to 100000 nM
17,[N-]=[N+]=N[C@]1(COP(=O)(O)OP(=O)(O)OP(=O)(O)O)O[C@@H](n2ccc(N)nc2=O)[C@H](O)[C@@H]1O [Compound 383a],< 1000 nM
18,C#C[C@@]1(n2cnc3c(=O)[nH]c(N)nc32)O[C@H](COP(=O)(O)OP(=O)(O)OP(=O)(O)O)[C@@H](O)[C@H]1F [Compound 335a],1000 to 10000 nM
19,C[C@]1(F)[C@H](n2cnc3c(=O)[nH]c(N)nc32)O[C@](F)(COP(=O)(O)OP(=O)(O)OP(=O)(O)O)[C@H]1O [Compound 214a],< 1000 nM
20,C[C@@]1(O)[C@H](O)[C@@](CF)(COP(=O)(O)OP(=O)(O)OP(=O)(O)O)O[C@H]1n1cnc2c(=O)[nH]c(N)nc21 [Compound 216a],< 1000 nM
21,C#C[C@@]1(O)[C@H](O)[C@@H](COP(=O)(O)OP(=O)(O)OP(=O)(O)O)O[C@H]1n1cnc2c(N)ncnc21 [Compound 289a],< 1000 nM
22,O=c1ccn([C@@H]2O[C@](CF)(COP(=O)(O)OP(=O)(O)OP(=O)(O)O)[C@@H](O)[C@]2(O)CF)c(=O)[nH]1 [Compound 353a],1000 to 10000 nM
23,[N-]=[N+]=N[C@]1(COP(=O)(O)OP(=O)(O)OP(=O)(O)O)O[C@@H](n2ccc(=O)[nH]c2=O)[C@H](F)[C@@H]1O [Compound 267a],< 1000 nM
24,C#C[C@]1(COP(=O)(O)OP(=O)(O)OP(=O)(O)O)O[C@@H](n2cnc3c(=O)[nH]c(N)nc32)[C@H](F)[C@@H]1O [Compound 34b],< 1000 nM
25,O=c1ccn([C@@H]2O[C@](CF)(COP(=O)(O)OP(=O)(O)OP(=O)(O)O)[C@@H](O)[C@H]2F)c(=O)[nH]1 [Compound 111a],< 1000 nM
26,C[C@]1(O)[C@H](n2ccc(N)nc2=O)O[C@](C)(COP(=O)(O)OP(=O)(O)OP(=O)(O)O)[C@H]1O [Compound 340a],1000 to 10000 nM
27,[N-]=[N+]=NC[C@]1(COP(=O)(O)OP(=O)(O)OP(=O)(O)O)O[C@@H](n2ccc(N)nc2=O)[C@H](F)[C@@H]1O [Compound 115a],1000 to 10000 nM

row,SMILES,IC50
1,C[C@@]1(Cl)[C@H](O)[C@@H](COP(=O)(O)OP(=O)(O)OP(=O)(O)O)O[C@H]1n1ccc(N)nc1=O [Compound 262a],1000 to 10000 nM
2,Cc1cn([C@@H]2O[C@](CCl)(COP(=O)(O)OP(=O)(O)OP(=O)(O)O)[C@@H](O)[C@H]2F)c(=O)nc1N [Compound 97d],1000 to 10000 nM
3,C=CC[C@@]1(O)[C@H](O)[C@@](CF)(COP(=O)(O)OP(=O)(O)OP(=O)(O)O)O[C@H]1n1ccc(=O)[nH]c1=O [Compound 350a],1000 to 10000 nM
4,C=C[C@]1(COP(=O)(O)OP(=O)(O)OP(=O)(O)O)O[C@@H](n2ccc(=O)[nH]c2=O)C(F)(F)[C@@H]1O [Compound 221a],1000 to 10000 nM
5,[N-]=[N+]=N[C@]1(COP(=O)(O)OP(=O)(O)OP(=O)(O)O)O[C@@H](n2cnc3c(=O)[nH]c(N)nc32)[C@H](O)[C@@H]1O [Compound 268a],< 1000 nM
6,Nc1ccn([C@@H]2O[C@](CF)(COP(=O)(O)OP(=O)(O)OP(=O)(O)O)[C@@H](O)C2(F)F)c(=O)n1 [Compound 227a],1000 to 10000 nM
7,C#C[C@@]1(O)[C@H](O)[C@@](CF)(COP(=O)(O)OP(=O)(O)OP(=O)(O)O)O[C@H]1n1cnc2c(N)ncnc21 [Compound 230a],< 1000 nM
8,C#C[C@@]1(O)[C@H](O)[C@@](CF)(COP(=O)(O)OP(=O)(O)OP(=O)(O)O)O[C@H]1n1ccc(=O)[nH]c1=O [Compound 219a],< 1000 nM
9,C[C@@]1(O)[C@H](O)[C@@](CF)(COP(=O)(O)OP(=O)(O)OP(=O)(O)O)O[C@H]1n1ccc(N)nc1=O [Compound 354a],< 1000 nM
10,C[C@]1(N)[C@H](n2ccc(N)nc2=O)O[C@](F)(COP(=O)(O)OP(=O)(O)OP(=O)(O)O)[C@H]1O [Compound 303a],10000 to 100000 nM
11,C#C[C@]1(O)[C@H](n2cnc3c(=O)[nH]c(N)nc32)O[C@](F)(COP(=O)(O)OP(=O)(O)OP(=O)(O)O)[C@H]1F [Compound 233a],< 1000 nM
12,O=c1ccn([C@@H]2O[C@](CCl)(COP(=O)(O)OP(=O)(O)OP(=O)(O)O)[C@@H](O)[C@H]2F)c(=O)[nH]1 [Compound 56a],1000 to 10000 nM
13,CC#C[C@@]1(O)[C@H](O)[C@@](CF)(COP(=O)(O)OP(=O)(O)OP(=O)(O)O)O[C@H]1n1ccc(=O)[nH]c1=O [Compound 349a],< 1000 nM
14,C[C@]1(N=[N+]=[N-])[C@H](n2ccc(N)nc2=O)O[C@](F)(COP(=O)(O)OP(=O)(O)OP(=O)(O)O)[C@H]1O [Compound 302a],1000 to 10000 nM
15,C=C[C@]1(O)[C@H](n2ccc(=O)[nH]c2=O)O[C@](F)(COP(=O)(O)OP(=O)(O)OP(=O)(O)O)[C@H]1O [Compound 330a],1000 to 10000 nM
16,C#C[C@@]1(O)[C@H](O)[C@@H](COP(=O)(O)OP(=O)(O)OP(=O)(O)O)O[C@H]1n1cnc2c(=O)[nH]c(N)nc21 [Compound 290a],< 1000 nM
17,C[C@]1(Cl)[C@H](n2ccc(=O)[nH]c2=O)O[C@](F)(COP(=O)(O)OP(=O)(O)OP(=O)(O)O)[C@H]1O [Compound 239a],1000 to 10000 nM
18,C[C@]1(O)[C@H](n2cnc3c(N)ncnc32)O[C@](F)(COP(=O)(O)OP(=O)(O)OP(=O)(O)O)[C@H]1O [Compound 333a],1000 to 10000 nM
19,C=C[C@]1(COP(=O)(O)OP(=O)(O)OP(=O)(O)O)O[C@@H](n2ccc(N)nc2=O)[C@H](F)[C@@H]1O [Compound 36b],1000 to 10000 nM
20,N#C[C@@]1(n2ccc(=O)[nH]c2=O)O[C@](CF)(COP(=O)(O)OP(=O)(O)OP(=O)(O)O)[C@@H](O)[C@H]1O [Compound 331a],< 1000 nM
21,C[C@]1(COP(=O)(O)OP(=O)(O)OP(=O)(O)O)O[C@@H](n2cnc3c(=O)[nH]c(N)nc32)[C@H](O)[C@@H]1O [Compound 334a],< 1000 nM
22,C[C@@]1(O)[C@H](O)[C@@](CN=[N+]=[N-])(COP(=O)(O)OP(=O)(O)OP(=O)(O)O)O[C@H]1n1ccc(=O)[nH]c1=O [Compound 346a],1000 to 10000 nM
23,[N-]=[N+]=N[C@]1(COP(=O)(O)OP(=O)(O)OP(=O)(O)O)O[C@@H](n2ccc(=O)[nH]c2=O)[C@H](O)[C@@H]1O [Compound 264a],< 1000 nM
24,C[C@]1(O)[C@H](n2ccc(=O)[nH]c2=O)O[C@](F)(COP(=O)(O)OP(=O)(O)OP(=O)(O)O)[C@H]1O [Compound 122a],1000 to 10000 nM
25,C[C@]1(O)[C@H](n2cnc3c(=O)[nH]c(N)nc32)O[C@](F)(COP(=O)(O)OP(=O)(O)OP(=O)(O)O)[C@H]1F [Compound 232a],< 1000 nM
26,[N-]=[N+]=N[C@]1(COP(=O)(O)OP(=O)(O)OP(=O)(O)O)O[C@@H](n2ccc(N)nc2=O)[C@@H](O)[C@@H]1O [Compound 270a],< 1000 nM
27,C=C[C@]1(COP(=O)(O)OP(=O)(O)OP(=O)(O)O)O[C@@H](n2cnc3c(=O)[nH]c(N)nc32)[C@H](F)[C@@H]1O [Compound 34a],< 1000 nM
